From patent US20140228329A1, “USE OF 25-HYDROXY VITAMIN D3 TO PROMOTE PHOSPHOROUS UTILISATION IN RUMINANTS” (DSM IP ASSETS B.V., priority 2011, published 2014)

Legend:
cattle [1] = test: Low Phosphorous diet experiment in cattle: blood plasma phosphorous concentration; format: in vivo; details: cattle on low Phosphorous roughage diet, 2,000 μg 25-hydroxy-vitamin D3 per head/day vs control diet; measured after 1, 11, 12, 13 and 14 days; effect at least after 10 days (FIG. 1)
Procedure: (§1) In an experimental cattle farm, two groups of animals were selected for the following experiment with a low Phosphorous diet.
(§2) One group received the control diet which was the standard roughage diet without the supplementation of 25-hydroxy-vitamin D3. The other group received the experimental diet which was the standard roughage diet supplemented with 2,000 μg 25-hydroxy-vitamin D3 per head/day
After 1, 11, 12, 13 and 14 days the blood plasma concentration of phosphorous was measured by standard method.

cattle [2] = test: Low Phosphorous diet experiment in cattle: phosphorous in diet, faeces and urine (P balance); format: in vivo
Procedure: as §1, §2
Additionally the phosphorous concentration in g/day was measured or/calculated in the diet, faeces and urine.

[3] = low Phosphorous roughage diet, 2,000 μg 25-hydroxy-vitamin D3 per head/day, NS vs control
[4] = low Phosphorous roughage diet, 2,000 μg 25-hydroxy-vitamin D3 per head/day, P < 0.05 vs control

With `C=C1CC[C@H](O)C/C1=C/C=C1\CCC[C@]2(C)[C@@H]([C@H](C)CCCC(C)(C)O)CC[C@@H]12` [25OH-D3, 25-hydroxy vitamin D3] the “phosphorous concentration in blood plasma” value (cattle [1]) was “significant increase”, the “P excretion by the animal” value (cattle [2]; low Phosphorous diet, after 25-OH D3 supplementation vs control) was “significant decrease” and the “P (g/day) Feed” value (cattle [2]; [3]) was 26.36 g/day. The “P (g/day) Urine” value (cattle [2]; [3]) was 1.12 g/day, the “P (g/day) Faeces” value (cattle [2]; [4]) was 17.21 g/day and the “P (g/day) Retained” value (cattle [2]; [4]) was 8.03 g/day.
